In patent publication US11358939B2, “1,4-benzodiazepin-2-one derivatives and use thereof” (priority 2017, dated 2022):

Assays:
food consumption by rats [1] = experiment: Action on appetite, Anorexia method (liquid food consumption); assay type: in vivo; settings: for Amount of consumed liquid food during 30 min in ml / Food consumption, % of control: dose 0,1 mg/kg intraperitoneally
Description: (§1) Studies of pharmacological activity of 3-arylamino-1,3-dihydro-2H-benzo[e][1,4]diazepin-2-ones, namely, their action of appetite, assessment of antihypoxic and antidepressant activity was performed in white male rats with body mass 150-180 g and male mice with body mass 18-22 g. The animals were kept on a standard laboratory diet and natural lighting. Animals of control group were given a water-Tween suspension. Test compounds were administered in a suspension with Tween-80 Reference drugs were the hormone leptin, in 0.0002 mg/kg dose, and a well-known antidepressant amitriptyline (solution for injections in 1 ml vials. Test compounds and the water-Tween suspension were administered in a dose of 0.2 ml/100 g of rat body mass.
The action of the compounds on rat appetite was studied using «norexia» method. For 2 weeks in an experimental equipment the rats were conditioned to consume liquid food. Then a water-Tween suspension of test articles was administered intraperitoneally to conditioned animals one day before the experiment. After 40 minutes the animals were allowed access to liquid food and the amount of consumed food (in ml) of every rat was registered every 30 minutes for 3 hours. The next day after 2 hours of deprivation the rats in control group were administered a water-Tween suspension intraperitoneally, while the test group was administered the test articles. After 40 minutes the animals were allowed access to liquid food and the amount of consumed food (in ml) of every rat was registered every 30 minutes for 3 hours. Then all food consumption values for each rat were summed and compared to control values. The control group has consumed on average 7 ml of liquid food per 30 minutes. The effect was calculated in percentage compared to control.

[2] = test system: mice in acute confined space hypoxia; experiment: Antihypoxic activity, acute confined space hypoxia (CSH); assay type: in vivo; settings: 10 mg/kg
Description: as §1
Screening of antihypoxic activity was performed using the model of acute confined space hypoxia (CSH). CSH was modeled by placing mice into isolated sealed chambers (V=200 ml). Each group included 10 animals. The observation lasted until the death of the animals. Antihypoxic effect was assessed by the survival duration (in min) compared to control, which was taken as 100%, and according to the calculation of antihypoxic protection ratio (Rpr):Rpr=Tt/Tc, where Tt—average animal survival time in the test group; Tc—average animal survival time in the control group.

[3] = test system: writhes induced by intraperitoneal acetic acid; experiment: Analgesic activity, acetic acid-induced writhing test (peripheral pain model); assay type: in vivo; settings: for Writhing inhibition, % of control in 1 mg/kg dose: compounds Ia, 1 mg/kg intraperitoneally, 40 min before 0.75% acetic acid
Description: Assessment of analgesic activity was performed in a model of peripheral pain based on chemical pain induced by intraperitoneal administration of acetic acid, leading to involuntary contractions of abdominal muscles, termed “writhes”, accompanied by hind leg extension and spine arching. The writhes were induced by 0.75% solution of acetic acid, which was administered intraperitoneally 40 min after intraperitoneal administration of test compounds in 0.001-5 mg/kg dose range. […] Analgesic activity was assessed by the ability of the compounds to reduce the number of writhes in test group compared to control group, and indicated as percentage using the following formula: AA=(Wc−Wt/Wc)×100%,
where AA—analgesic activity in %;
Wc—average number of writhes in control group;
Wt—average number of writhes in test group
Test compounds were studied in comparison with the reference drug sodium diclofenac in 10 mg/kg dose. ED50 was calculated using Prozorovsky method.

[4] = molecular target: peripheral benzodiazepine receptors (PBR) (Homo sapiens, UniProt P30536); experiment: Affinity to peripheral benzodiazepine receptors; assay type: binding; settings: 1×10^−6 mol/L
Chain of peripheral benzodiazepine receptors (PBR) (P30536 whole entry, species assumed): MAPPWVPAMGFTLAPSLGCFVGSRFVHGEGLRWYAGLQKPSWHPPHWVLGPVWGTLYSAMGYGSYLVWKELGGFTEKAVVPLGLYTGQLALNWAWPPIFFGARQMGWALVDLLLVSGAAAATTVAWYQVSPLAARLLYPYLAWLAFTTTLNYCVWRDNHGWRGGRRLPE
Text: (§2) Data on the affinity of 3-alcoxy-1,3-dihydro-2H-benzo[e][1,4]diazepin-2-ones (Ia) to central and peripheral benzodiazepine receptors is presented in Table 3.

[5] = test system: central benzodiazepine receptors (CBR); experiment: Affinity to central benzodiazepine receptors, competitive displacement of [3H]-flumazenil (radioreceptor method); assay type: binding; settings: 1×10^−6 mol/L
Description: Affinity of the compounds to central benzodiazepine receptors (CBR) was studied using radioreceptor method of competitive displacement of radioligant [^3H]-flumazenil (Ro 15-1788) from its specific binding sites at the receptor. Ligand displacement were performed in 1×10^−6 mol/L concentration.
as §2

immobility time of mice = experiment: Antidepressant activity, Porsolt forced swimming test; assay type: in vivo
Description: as §1
Antidepressant activity was studied using «Porsolt forced swimming test» [15], which models stress in mice by forcing them to swim in a narrow translucent cylinder, filled by ⅓ volume with water at 23-25° C. temperature. Antidepressant action is assessed by the reduction in immobility time, when the animals have minimal amount of paddling, in seconds or percentage compared to control. The animal behavior was registered for 4 minutes after acclimatization for 2 minutes.

[6] = test system: writhes induced by intraperitoneal acetic acid; settings: prior art section; cited from earlier work
food consumption by rats [7] = experiment: Action on appetite, Anorexia method (liquid food consumption); assay type: in vivo; settings: leptin dose 20 nM
[8] = test system: mice in acute confined space hypoxia; settings: reference drug, ref. [14]; cited from earlier work

| Compound | Writhing inhibition, % of control in 1 mg/kg dose [3] [%] | Affinity PBR, % [4] [%] | Affinity CBR, % [5] [%] | further results |
| --- | --- | --- | --- | --- |
| O=C1Nc2ccc([N+](=O)[O-])cc2C(c2ccccc2)=NC1Nc1ccc(Cl)cc1 (stereo not shown) [Compound 250] |  |  |  | Amount of consumed liquid food during 30 min in ml (food consumption by rats [1]): 6,3 ± 3,2 ml; Food consumption, % of control (food consumption by rats [1]): 85%; Increase of mice survival time during acute confined space hypoxia compared to control [2]: 70% |
| O=C1Nc2ccc(Cl)cc2C(c2ccccc2)=NC1OCC1CC1 (stereo not shown) [Compound 17] | 54 | 14 | 79 |  |
| CN(C)CCC=C1c2ccccc2CCc2ccccc21 [amitriptyline, reference compound] |  |  |  | Reduction of immobility time compared to control (immobility time of mice; 1 mg/kg): 40% |
| CCCCOC1N=C(c2ccccc2F)c2cc(Br)ccc2NC1=O (stereo not shown) [Compound 3] | 45 | 8 | 88 |  |
| CCOC1N=C(c2ccccc2Cl)c2cc([N+](=O)[O-])ccc2NC1=O (stereo not shown) [Compound 53] |  | 15 | 85 |  |
| O=C1Nc2ccc(OC(F)(F)F)cc2C(c2ccccc2)=NC1Nc1ccccc1Cl (stereo not shown) [Compound 194] |  |  |  | Reduction in appetite and food consumption compared to control (food consumption by rats [1]; Table 6 dose 0,1 mg/kg): 47%; Amount of consumed liquid food during 30 min in ml (food consumption by rats [1]): 3,5 ± 2,3 ml; Food consumption, % of control (food consumption by rats [1]): 47%; Reduction of immobility time compared to control (immobility time of mice; 1 mg/kg): 40% |
| O=C1Nc2ccc(Br)cc2C(c2ccccc2F)=NC1OCC1CC1 (stereo not shown) [Compound 6] | 55 | 15 | 89 |  |
| O=C1Nc2ccc(Br)cc2C(c2ccccc2F)=NC1OCCO (stereo not shown) [Compound 4] | 56 | 8 | 91 |  |
| CCCOC1N=C(c2ccccc2)c2cc(OC(F)(F)F)ccc2NC1=O (stereo not shown) [Compound 28] | 60 | 18 | 60 |  |
| CCCCOC1N=C(c2ccccc2Cl)c2cc([N+](=O)[O-])ccc2NC1=O (stereo not shown) [Compound 55] |  | 19 | 87 |  |
| O=C1Nc2ccc(OC(F)(F)F)cc2C(c2ccccc2)=NC1OCCO (stereo not shown) [Compound 30] | 50 | 16 | 65 |  |
| CCOC1N=C(c2ccccc2)c2cc(OC(F)(F)F)ccc2NC1=O (stereo not shown) [Compound 27] | 55 | 16 | 56 |  |
| COCCOC1N=C(c2ccccc2F)c2cc(Br)ccc2NC1=O (stereo not shown) [Compound 5] | 52 | 10 | 90 |  |
| CCCCOC1N=C(c2ccccc2)c2cc(OC(F)(F)F)ccc2NC1=O (stereo not shown) [Compound 29] | 56 | 15 | 61 |  |
| CCOC1N=C(c2ccccc2)c2cc(Br)ccc2N(CC(=O)OC)C1=O (stereo not shown) [methyl-2-(7-bromo-3-etoxy-2-oxo-5-phenyl-2,3-dihydro-1H-benzo[e][1,4]diazepin-1-yl) acetate] |  |  |  | ED50, analgesic activity in acetic acid-induced writhing test (prior art) [6]: 0.47 ± 0.15 mg/kg |
| COC(=O)CN1C(=O)C(Nc2cccc(F)c2)N=C(c2ccccc2)c2cc(Cl)ccc21 (stereo not shown) [Compound 159] |  |  |  | Reduction of immobility time compared to control (immobility time of mice; 1 mg/kg): 32% |
| CCCOC1N=C(c2ccccc2)c2cc([N+](=O)[O-])ccc2N(CC(=O)OC)C1=O (stereo not shown) [Compound 48, Methyl-2-(7-nitro-2-oxo-5-phenyl-3-propoxy-2,3-dihydro-1H-benzo[e][1,4]di-azepin-1-yl)acetate] | 85 |  |  | ED50 ([3]; ip, intraperitoneal, Prozorovsky method): 0.058 ± 0.015 mg/kg; melting point: 214 to 215 °C |
| O=C1Nc2ccc([N+](=O)[O-])cc2C(c2ccccc2)=NC1Nc1ccccc1[N+](=O)[O-] (stereo not shown) |  |  |  | melting point: 225 to 227 °C |
| CCCOC1N=C(c2ccccc2F)c2cc(Br)ccc2NC1=O (stereo not shown) [Compound 2] | 55 | 5 | 85 |  |
| COCCOC1N=C(c2ccccc2)c2cc(Cl)ccc2NC1=O (stereo not shown) [Compound 16] | 55 | 15 | 88 |  |
| leptin |  |  |  | Reduction in appetite and food consumption compared to control (food consumption by rats [1]; leptin 0.0002 mg/kg): 63%; Reduction of immobility time compared to control (immobility time of mice; 0.0002 mg/kg): 14%; Amount of consumed liquid food during 30 min in ml (food consumption by rats [7]): 2,5 ± 0,2 ml; Food consumption, % of control (food consumption by rats [7]): 37%; Antihypoxic properties [8]: no antihypoxic properties |
| O=C1Nc2ccc([N+](=O)[O-])cc2C(c2ccccc2F)=NC1Nc1cccc(Cl)c1 (stereo not shown) [Compound 357] |  |  |  | Amount of consumed liquid food during 30 min in ml (food consumption by rats [1]): 5,9 ± 2,2 ml; Food consumption, % of control (food consumption by rats [1]): 80%; Increase of mice survival time during acute confined space hypoxia compared to control [2]: 40.5% |
| CCCOC1N=C(c2ccccc2Cl)c2cc([N+](=O)[O-])ccc2NC1=O (stereo not shown) [Compound 54] |  | 16 | 88 |  |
